Results taken from the Kinase Knowledgebase extract (Sharma et al. 2016).

target: PIK3CA (human) (UniProt P42336); test: Assessment of PIK3CA Kinase Activity
Sequence (P42336 whole entry, looked up): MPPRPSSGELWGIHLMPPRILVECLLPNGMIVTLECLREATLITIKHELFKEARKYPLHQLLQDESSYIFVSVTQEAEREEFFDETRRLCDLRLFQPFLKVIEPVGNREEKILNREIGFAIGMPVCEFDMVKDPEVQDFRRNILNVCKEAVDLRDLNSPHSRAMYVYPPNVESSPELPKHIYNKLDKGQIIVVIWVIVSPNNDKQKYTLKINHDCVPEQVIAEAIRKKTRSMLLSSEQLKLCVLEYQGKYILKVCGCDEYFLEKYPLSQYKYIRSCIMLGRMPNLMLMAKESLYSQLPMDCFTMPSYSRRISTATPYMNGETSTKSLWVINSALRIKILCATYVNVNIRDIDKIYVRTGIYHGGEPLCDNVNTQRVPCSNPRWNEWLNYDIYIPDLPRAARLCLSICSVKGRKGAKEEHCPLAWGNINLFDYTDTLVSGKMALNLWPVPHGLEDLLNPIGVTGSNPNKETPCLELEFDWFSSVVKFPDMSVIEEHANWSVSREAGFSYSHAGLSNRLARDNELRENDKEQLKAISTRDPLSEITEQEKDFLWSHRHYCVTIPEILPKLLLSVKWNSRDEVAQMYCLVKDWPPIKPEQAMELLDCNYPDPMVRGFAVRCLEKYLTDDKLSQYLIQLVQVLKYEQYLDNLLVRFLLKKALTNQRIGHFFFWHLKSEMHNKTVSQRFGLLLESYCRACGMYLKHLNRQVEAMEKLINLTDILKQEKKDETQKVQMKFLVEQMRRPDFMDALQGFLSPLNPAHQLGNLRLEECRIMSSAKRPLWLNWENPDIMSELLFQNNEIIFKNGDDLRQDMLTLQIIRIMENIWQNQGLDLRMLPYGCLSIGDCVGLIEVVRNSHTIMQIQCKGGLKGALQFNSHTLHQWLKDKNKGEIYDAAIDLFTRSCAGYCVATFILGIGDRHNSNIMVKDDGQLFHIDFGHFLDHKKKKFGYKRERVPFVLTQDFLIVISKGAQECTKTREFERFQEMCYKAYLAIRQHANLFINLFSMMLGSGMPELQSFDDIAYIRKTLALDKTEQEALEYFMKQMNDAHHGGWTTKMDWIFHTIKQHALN

Row | Compound | IC50
1 | CC(C)n1ncnc1-c1cn2c(n1)-c1ccc(-c3ccccc3S(C)(=O)=O)cc1OCC2 | < 1000 nM
2 | CC(C)n1ncnc1-c1cn2c(n1)-c1ccc(C3CCN(CC(N)=O)CC3)cc1OCC2 | < 1000 nM
3 | CC(C)n1ncnc1-c1cn2c(n1)-c1ccc(N3CCN(C)CC3)nc1OCC2 | < 1000 nM
4 | CC(C)n1ncnc1-c1cn2c(n1)-c1ccc(-c3cnn(C(C)(C)C(N)=O)c3)cc1OCC2 | < 1000 nM
5 | Nc1cc2c(cn1)-c1nc(-c3ncnn3CC(F)(F)F)cn1CCO2 | < 1000 nM
6 | O=C(c1ccc2c(c1)-c1nc(-c3ncnn3-c3ccc(F)cc3F)cn1CCO2)N1CCN(CCO)CC1 | < 1000 nM
7 | CC(C)n1ncnc1-c1cn2c(n1)-c1ccc(-c3cn(C)c(CC(C)(C)O)n3)cc1OCC2 | < 1000 nM
8 | CC(C)n1ncnc1-c1cn2c(n1)-c1ccc(C3CCN(CC(C)(C)O)CC3)cc1OCC2 | < 1000 nM
9 | CC(C)n1ncnc1-c1cn2c(n1)-c1cnc(NCc3ccn[nH]3)cc1OCC2 | < 1000 nM
10 | Cc1nc(-c2cn3c(n2)-c2cnc(N4CCC[C@H]4C(N)=O)cc2OCC3)n(C(C)C)n1 | < 1000 nM
11 | CC(C)n1ncnc1-c1cn2c(n1)-c1ccc(-c3cn[nH]c3)cc1OCC2 | < 1000 nM
12 | Clc1ccc(-c2ccc3c(c2)-c2nc(-c4ncnn4-c4ccccc4Cl)cn2CCO3)cc1 | < 1000 nM
13 | Cc1nc(-c2cn3c(n2)-c2cnc(N4CC[C@@H](O)[C@H]4C(N)=O)cc2OCC3)n(C(C)C)n1 | < 1000 nM
14 | CC(C)n1ncnc1-c1cn2c(n1)-c1ccc(N3CCC[C@H]3C(N)=O)cc1OCC2 | < 1000 nM
15 | Cc1nc(-c2cn3c(n2)-c2cnc(N4CC[C@H](O)[C@H]4C(N)=O)cc2OCC3)n(C(C)C)n1 | < 1000 nM
16 | CC(C)n1ncnc1-c1cn2c(n1)-c1ccc(N3CC(N)(CO)C3)cc1OCC2 | < 1000 nM
17 | O=C(CO)N1CCC(c2ccc3c(c2)-n2nc(-c4ncnn4CC(F)(F)F)cc2CCO3)CC1 | < 1000 nM
18 | CC(C)N1CCC(c2ccc3c(c2)OCCn2cc(-c4ncnn4C(C)C)nc2-3)CC1 | < 1000 nM
19 | CC(C)n1ncnc1-c1cn2c(n1)-c1ccc([C@H]3C[C@H]4CC[C@@H](C3)N4CC(N)=O)cc1OCC2 | < 1000 nM

Further lines, results first:

Row | IC50 | Compound
20 | < 1000 nM | Cc1nc(-c2cn3c(n2)-c2ccc(-c4cn[nH]c4)cc2OCC3)n(C(C)C)n1
21 | < 1000 nM | CC(C)n1ncnc1-c1cn2c(n1)-c1cc(Br)ccc1OCC2
22 | < 1000 nM | CNC(=O)c1ccc2c(c1)-c1nn(-c3ncnn3C(C)C)cc1CCO2
23 | < 1000 nM | CC(C)n1ncnc1-c1cn2c(n1)-c1ccc(C3CN(CCS(C)(=O)=O)C3)cc1OCC2
24 | < 1000 nM | OCCN1CCC(c2ccc3c(c2)-n2nc(-c4ncnn4CC(F)(F)F)cc2CCO3)CC1
25 | < 1000 nM | COc1cc2c(cn1)-c1nc(-c3ncnn3C(C)C)cn1CCO2
26 | < 1000 nM | CC(C)n1ncnc1-c1cn2c(n1)-c1cnc(N3CC[C@H](C#N)C3)cc1OCC2
27 | < 1000 nM | Cc1nc(-c2cn3c(n2)-c2cnc(N4CCCC4C4CCCCN4C)cc2OCC3)n(CC(F)(F)F)n1 (configuration not stated)
28 | < 1000 nM | CC(C)n1ncnc1-c1cn2c(n1)-c1cc(-c3ccc(Cl)cc3)ccc1OCC2
29 | < 1000 nM | Cc1cn(C(C)C)c(-c2cn3c(n2)-c2ccc(-c4cnn(CC(C)(C)O)c4)cc2OCC3)n1
30 | < 1000 nM | COC[C@H](Nc1ccc2c(c1)OCCn1cc(-c3ncnn3CC(F)(F)F)nc1-2)C(N)=O
31 | < 1000 nM | CC(C)n1nc(N)nc1-c1cn2c(n1)-c1ccc(C3CC3)cc1OCC2
32 | < 1000 nM | CC(C)n1ncnc1-c1cc2n(n1)-c1cc(C(=O)N3CCN(CC(F)(F)F)CC3)ccc1OCC2
33 | < 1000 nM | CS(=O)(=O)CCN1CCC(c2ccc3c(c2)-n2nc(-c4ncnn4CC(F)(F)F)cc2CCO3)CC1
34 | < 1000 nM | CO[C@H]1CCN(c2cc3c(cn2)-c2nc(-c4ncnn4C(C)C)cn2CCO3)[C@@H]1C(N)=O
35 | < 1000 nM | Cc1nc(-c2cn3c(n2)-c2cnc(N4CC(F)(F)C[C@H]4C(N)=O)cc2OCC3)n(C(C)C)n1
36 | < 1000 nM | NC(=O)[C@H](CO)Oc1ccc2c(c1)OCCn1cc(-c3ncnn3CC(F)(F)F)nc1-2
37 | < 1000 nM | CC(C)n1ncnc1-n1cc2c(n1)-c1cc(C(=O)NCCO)ccc1OCC2
